Assay in all cases: In vitro MMP inhibition, Ki determination (fluorogenic substrate II)
Assay type in all cases: biochemical

In one experiment the target is T1, Human recombinant MMP-1 (Homo sapiens, UniProt P03956).
T1 construct: made in house; host or cells: MMP-1-transfected HT-1080 cells (spent media)
T1 sequence (P03956 100-469): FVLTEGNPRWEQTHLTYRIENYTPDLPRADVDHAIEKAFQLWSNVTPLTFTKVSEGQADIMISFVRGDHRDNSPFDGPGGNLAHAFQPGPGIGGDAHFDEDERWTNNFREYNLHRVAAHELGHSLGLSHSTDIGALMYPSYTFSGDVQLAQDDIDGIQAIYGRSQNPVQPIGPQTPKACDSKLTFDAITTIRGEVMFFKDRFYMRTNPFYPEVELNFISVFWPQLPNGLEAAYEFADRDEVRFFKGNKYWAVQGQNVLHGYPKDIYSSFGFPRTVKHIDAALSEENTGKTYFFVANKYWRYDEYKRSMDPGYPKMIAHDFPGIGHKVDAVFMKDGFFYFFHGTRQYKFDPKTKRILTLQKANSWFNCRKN
As for the experimental part: (§1) Several hydroxamates and salts thereof were analyzed in in vitro assays to determine their ability to inhibit the MMP cleavage of peptide substrates. Inhibition (Ki) and IC50 constants were calculated from the assayed hydroxamate-MMP interactions.
(§2) Human recombinant MMP-1, MMP-2, MMP-9, MMP-13, and MMP-14 were used in this assay. All enzymes were prepared in Assignee's laboratories following usual laboratory procedures. Protocols for the preparation and use of these enzymes are available in the scientific literature. See, e.g., Enzyme Nomenclature (Academic Press, San Diego, Calif., 1992) (and the citations therein). See also, Frije et al., J. Biol. Chem., 26(24), 16766-73 (1994).
The MMP-1 proenzyme was purified from the spent media of MMP-1-transfected HT-1080 cells provided by Dr. Harold Welgus of Washington University (St. Louis, Mo.). The protein was purified on a zinc chelating column.
(§3) All MMPs were activated using 4-aminophenylmercuric acetate (“APMA”, Sigma Chemical, St. Louis, Mo.) or trypsin. MMP-9 also was activated using human recombinant MMP-3 (purified in Assignee's laboratory following standard cloning and purification techniques).
(§4) Two fluorogenic, methoxycoumarin-containing polypeptide substrates were used in the MMP inhibition assays:
(§5) MCA-ArgProLeuGlyLeuDpaAlaArgGluArgNH2 (II)
(§6) Here, “Dpa” is 3-(2,4-dinitrophenyl)-L-2,3-diaminopropionyl group, and “MCA” is 7-methoxycoumarin-4-yl acetyl. Substrate (I) was purchased from Baychem (Redwood City, Calif.), and substrate II was prepared Assignee's laboratory. Substrate I was used in the IC50 determination assays, while substrate II was used in the Ki determination assays. In the absence of MMP inhibitory activity, either substrate is cleaved at the Gly-Leu peptide bond. This cleavage separates the highly fluorogenic peptide from the 2,4-dinitrophenyl quencher, thus resulting in increase of fluorescent intensity.
(§7) The stock solutions of the assayed hydroxamates (or salts thereof) were prepared in 1% dimethyl sulfoxide (DMSO). These stock solutions were diluted in Buffer A (100 mM Tris-HCl, 100 mM NaCl, 10 mM CaCl2, 0.05% polyoxyethylene 23 lauryl ether, pH 7.5) to obtain solutions with different hydroxamate concentrations, i.e., assay solutions with different concentrations of the assayed MMP inhibitory compound. The experiment controls contained the same amount of Buffer A/DMSO as the assayed sample, but contained no hydroxamate (or salt thereof).
(§8) The assays from which the Ki determinations were made were performed as follows. The assayed hydroxamate samples were incubated in separate wells of untreated white polystyrene plates (Nunc Nalgene International, Rochester, N.Y.), and analyzed on a Tecan SpectraFlour Plus plate reader. The excitation wavelength was 330 nm, and the emission wavelength—420 nm. All samples (assayed hydroxamates and controls) were incubated in separate plate wells at room temperature for 1 hr in the presence of 4 μM of MMP substrate (II). In the absence of MMP inhibitory activity, substrate II was cleaved at the Gly-Leu bond resulting in an increase of relative fluorescence. Inhibition was observed as a reduced rate of this increase in relative fluorescence. The various hydroxamates were analyzed using a single low enzyme concentration with a single substrate concentration fixed at or below the Km. This protocol is a modification of method by Knight et al., FEBS Lett., 296(3), 263-266 (1992). Apparent inhibitory constants were determined by non-linear regression of reaction velocity as a function of inhibitor and enzyme concentration using Morrison's equation, as described by Kuzmic, Anal. Biochem. 286, 45-50 (2000). Modifications were made in the non-linear regression method to allow a common control reaction rate and effective enzyme concentration to be shared between all dose-response relationships on a given assay plate. […]

Another experiment deals with T2, Human recombinant MMP-9 (Homo sapiens, UniProt P14780).
T2 construct: made in house; host or cells: MMP-9-transfected HT1080 cells (spent media)
T2 sequence (P14780 107-707 limits assumed): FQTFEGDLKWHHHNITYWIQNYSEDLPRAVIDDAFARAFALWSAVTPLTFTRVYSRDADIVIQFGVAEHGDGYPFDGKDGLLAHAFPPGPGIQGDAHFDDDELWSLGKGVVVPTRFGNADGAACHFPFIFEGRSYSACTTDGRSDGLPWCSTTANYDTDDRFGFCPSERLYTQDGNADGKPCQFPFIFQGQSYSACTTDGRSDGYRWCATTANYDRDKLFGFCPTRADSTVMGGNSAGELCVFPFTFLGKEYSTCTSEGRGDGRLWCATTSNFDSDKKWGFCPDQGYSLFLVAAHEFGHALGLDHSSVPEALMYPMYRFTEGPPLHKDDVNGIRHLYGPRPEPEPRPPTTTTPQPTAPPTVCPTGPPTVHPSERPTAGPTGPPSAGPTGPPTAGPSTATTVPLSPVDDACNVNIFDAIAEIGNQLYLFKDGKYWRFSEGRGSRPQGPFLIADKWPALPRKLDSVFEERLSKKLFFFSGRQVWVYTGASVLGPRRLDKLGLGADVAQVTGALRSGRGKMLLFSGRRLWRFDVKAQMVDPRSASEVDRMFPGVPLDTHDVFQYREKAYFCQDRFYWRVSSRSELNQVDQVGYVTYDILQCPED
As to the method:
as §1, §2
The MMP-9 proenzyme was purified by gelatin Sepharose chromatography from spent media of MMP-9-transfected HT1080 cells provided by Dr. Howard Welgus of Washington University (St. Louis, Mo.).
as §3, §4, §5, §6, §7, §8

The target in another experiment is T3, Human recombinant MMP-13 (Homo sapiens, UniProt P45452).
T3 construct: made in house; host or cells: baculovirus / insect cells
As for the experimental part:
as §1, §2
The expressed proenzyme was first purified over a heparin agarose column, and then over a chelating zinc chloride column. The proenzyme was then activated by APMA for use in the assay. Further details on baculovirus expression systems may be found in, for example, Luckow et al., J. Virol., 67, 4566-79 (1993). See also, O'Reilly et al, Baculovirus Expression Vectors: A Laboratory Manual (W. H. Freeman and Co., New York, N.Y., 1992). See also, King et al., The Baculovirus Expression System: A Laboratory Guide (Chapman & Hall, London, England, 1992).
as §3, §4, §5, §6, §7
as §8, with “(2000).” for “(2000). Modifications were made in the non-linear regression method to allow a common control reaction rate and effective enzyme concentration to be shared between all dose-response relationships on a given assay plate.”

Where [1] appears, read: substrate (II) 4 μM, 1 hr room temperature, apparent Ki, values in parenthesis.

A value given as a limit tells only on which side of the number the result lay.

Consider `O=C(NO)C1(S(=O)(=O)c2ccc(OCCCc3cccc(-c4ccccc4O)c3)cc2)CCOCC1` [Example 636], for which the Ki on Human recombinant MMP-1 (value in parentheses) is above 10000 nM; at Human recombinant MMP-9 (value in parentheses), 763 nM; at Human recombinant MMP-13 (value in parentheses), 3.21 nM.

As to `N#Cc1ccc(-c2cccc(CCCOc3ccc(S(=O)(=O)C4(C(=O)NO)CCOCC4)cc3)c2)cc1` [Example 624], the values for the Ki on Human recombinant MMP-1 (value in parentheses), on Human recombinant MMP-9 (value in parentheses) and at Human recombinant MMP-13 (value in parentheses) were above 10000 nM, 443 nM and 0.9 nM, respectively.

With `CCc1ccccc1-c1noc(CCCOc2ccc(S(=O)(=O)C3(C(=O)NO)CCN(CCOC)CC3)cc2)n1` [Example 155], the Ki on Human recombinant MMP-1 (value in parenthesis) is above 10000 nM; at Human recombinant MMP-9 (value in parenthesis), 172 nM; on Human recombinant MMP-13 (value in parenthesis), 1.58 nM.

On to `O=C(NO)C1(S(=O)(=O)c2ccc(OCCCc3cccc(-c4ccccc4F)c3)cc2)CCOCC1` [Example 163], for which the figures for the Ki on Human recombinant MMP-1 (value in parenthesis), at Human recombinant MMP-9 (value in parenthesis) and at Human recombinant MMP-13 (value in parenthesis) were above 10000 nM, 2500 nM and 11.6 nM, respectively.

As for `O=C(Cc1csc2ccccc12)NCCOc1ccc(S(=O)(=O)C2(C(=O)NO)CCOCC2)cc1` [Example 596], the figures for the Ki at Human recombinant MMP-1 (value in parentheses), at Human recombinant MMP-9 (value in parentheses) and at Human recombinant MMP-13 (value in parentheses) were above 10000 nM, 308 nM and 0.398 nM, respectively.

Consider `O=C(NO)C1(S(=O)(=O)c2ccc(OCCCn3nnc(-c4ccc(OC(F)(F)F)cc4)n3)cc2)CCN(C2CC2)CC1` [Example 49], for which the results for the Ki at Human recombinant MMP-1 (setting [1]), on Human recombinant MMP-9 (setting [1]) and at Human recombinant MMP-13 (setting [1]) were above 10000 nM, 1950 nM and 0.439 nM, respectively.

For `Cc1ccc(-c2cccc(CCOc3ccc(S(=O)(=O)C4(C(=O)NO)CCOCC4)cc3)c2)cc1` [Example 127], the Ki on Human recombinant MMP-1 (value in parenthesis) is above 10000 nM; at Human recombinant MMP-9 (value in parenthesis), 4230 nM; at Human recombinant MMP-13 (value in parenthesis) it was 16.2 nM.

Consider `O=C(NO)C1(S(=O)(=O)c2ccc(OCCCc3cccc(-c4ccco4)c3)cc2)CCOCC1` [Example 97], for which the Ki at Human recombinant MMP-1 (value in parenthesis) is 7360 nM; on Human recombinant MMP-9 (value in parenthesis) it was 473 nM; on Human recombinant MMP-13 (value in parenthesis), 5.57 nM.

Consider `O=C1Nc2ccc(-c3noc(CCCOc4ccc(S(=O)(=O)C5(C(=O)NO)CCN(C6CC6)CC5)cc4)n3)cc21` [Example 142], for which the Ki on Human recombinant MMP-1 (value in parenthesis) is above 10000 nM; at Human recombinant MMP-9 (value in parenthesis), 310 nM; at Human recombinant MMP-13 (value in parenthesis), 1.34 nM.

As for `O=C(CCCOc1ccc(S(=O)(=O)C2(C(=O)NO)CCOCC2)cc1)Nc1cccc(OC(F)(F)F)c1` [Example 181], the Ki is 1850 nM on Human recombinant MMP-1 (value in parenthesis), 40.5 nM at Human recombinant MMP-9 (value in parenthesis) and 0.27 nM on Human recombinant MMP-13 (value in parenthesis).

For `O=C(NO)C1(S(=O)(=O)c2ccc(OCCCc3cccc(-c4cccc(F)c4)c3)cc2)CCOCC1` [Example 161], the results for the Ki on Human recombinant MMP-1 (value in parenthesis), at Human recombinant MMP-9 (value in parenthesis) and at Human recombinant MMP-13 (value in parenthesis) were above 10000 nM, 1730 nM and 20.3 nM, respectively.

For the compound `O=C(NO)C1(S(=O)(=O)c2ccc(OCCCc3cncc(-c4ccccc4)c3)cc2)CCOCC1` [Example 524], the figures for the Ki at Human recombinant MMP-9 (value in parentheses) and at Human recombinant MMP-13 (value in parentheses) were 739 nM and 0.244 nM, respectively.

Turning to `CC(C)c1ccc(-c2cccc(CCCOc3ccc(S(=O)(=O)C4(C(=O)NO)CCOCC4)cc3)c2)cc1` [Example 160], the Ki at Human recombinant MMP-1 (value in parenthesis) and on Human recombinant MMP-9 (value in parenthesis) was above 10000 nM in each case.

Turning to `NC(=O)c1cccc(OCCOc2ccc(S(=O)(=O)C3(C(=O)NO)CCOCC3)cc2)c1` [Example 54], the Ki is above 10000 nM on Human recombinant MMP-1 (setting [1]) and 388 nM on Human recombinant MMP-9 (setting [1]).

In the case of `CC(C)C(=O)c1cccc(CCCOc2ccc(S(=O)(=O)C3(C(=O)NO)CCOCC3)cc2)c1` [Example 95], the Ki on Human recombinant MMP-1 (value in parenthesis) is above 10000 nM; on Human recombinant MMP-9 (value in parenthesis) it was 788 nM.

On to `COCCN1CCC(C(=O)NO)(S(=O)(=O)c2ccc(OCCCn3nnc(-c4ccc(OC(F)(F)F)cc4)n3)cc2)CC1` [Example 48], for which the Ki turned out to be 159 nM at Human recombinant MMP-9 (setting [1]) and 0.127 nM at Human recombinant MMP-13 (setting [1]).

`O=C(NO)C1(S(=O)(=O)c2ccc(OCCCc3cccc(-c4cccs4)c3)cc2)CCOCC1` [Example 595]: the Ki at Human recombinant MMP-9 (value in parentheses) stood at 2060 nM; on Human recombinant MMP-13 (value in parentheses), 7.25 nM.

For the compound `O=C(NO)C1(S(=O)(=O)c2ccc(OCCCc3cncc(Br)c3)cc2)CCOCC1` [Example 522], the Ki was above 10000 nM at Human recombinant MMP-1 (value in parentheses) and 135 nM on Human recombinant MMP-9 (value in parentheses).

The values above are taken from patent US20040024024A1, “Aromatic sulfone hydroxamates and their use as protease inhibitors” (priority 2001, published 2004).
